According to patent US8574563B2 (Bristol-Myers Squibb Company, priority 2006, dated 2013):

tested on: HCV 1b-377-neo replicon cells; assay: HCV replicon assay, HCV 1b-377-neo replicon cells (1b FRET); type: cell-based, Hepatitis C virus genotype 1b; conditions: Hepatitis C virus, HCV 1b-377-neo replicon cells; HCV 1b genotype; read-out: EC50 range against HCV 1b (Table 2, Range)
Summary of the method: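 Compounds tested in HCV genotype 1b-377-neo replicon cells with a FRET read-out. Cells resistant to a reference NS5A inhibitor through a Y2065H NS5A mutation were run alongside wild-type cells.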

Q: How did the EC50 turn out when `O=C(Cc1ccccc1CN1CCOCC1)N1CCC[C@H]1c1ncc(-c2ccc(-c3ccc(-c4cnc([C@@H]5CCCN5C(=O)[C@@H](c5ccccc5)N5CCCCC5)[nH]4)cc3)cc2)[nH]1` [Example 107-26, 4-(2-(2-oxo-2-((2S)-2-(5-(4′-(2-((2S)-1-((2R)-2-phenyl-2-(1-piperidinyl)acetyl)-2-pyrrolidinyl)-1H-imidazol-5-yl)-4-biphenylyl)-1H-imidazol-2-yl)-1-pyrrolidinyl)ethyl)benzyl) morpholine] was run?
A: 1 to 999 pM

Q: With `COC(=O)N[C@@H](C(=O)N1CCC[C@H]1c1ncc(-c2ccc(-c3ccc(-c4cnc([C@@H]5CCCN5C(=O)C(C)(C)c5ccc(Cl)cc5)[nH]4)cc3)cc2)[nH]1)c1ccccc1` [Example 84-79, methyl ((1R)-2-((2S)-2-(5-(4′-(2-((2S)-1-(2-(4-chlorophenyl)-2-methylpropanoyl)-2-pyrrolidinyl)-1H-imidazol-5-yl)-4-biphenylyl)-1H-imidazol-2-yl)-1-pyrrolidinyl)-2-oxo-1-phenylethyl)carbamate] as the compound, how does the EC50 read?
A: 1 to 999 pM

Q: How did the EC50 turn out when `C[C@H](NS(C)(=O)=O)C(=O)N1CCC[C@H]1c1nc(-c2ccc(-c3ccc(-c4cnc([C@@H]5CCCN5C(=O)[C@H](C)NS(C)(=O)=O)[nH]4)cc3)cc2)c[nH]1` [Example F69, N-((1S)-1-methyl-2-((2S)-2-(5-(4′-(2-((2S)-1-(N-(methylsulfonyl)-L-alanyl)-2-pyrrolidinyl)-1H-imidazol-4-yl)-4-biphenylyl)-1H-imidazol-2-yl)-1-pyrrolidinyl)-2-oxoethyl)methanesulfonamide] was run?
A: 100000 to 999000 pM

Q: With `CCN(CC)[C@@H](C(=O)N1CCC[C@H]1c1ncc(-c2ccc(-c3ccc(-c4cnc([C@@H]5CCCN5C(=O)C[C@@H](Cc5ccccc5)NC(=O)OC)[nH]4)cc3)cc2)[nH]1)c1ccccc1` [cj-58, methyl ((1R)-1-benzyl-3-((2S)-2-(5-(4′-(2-((2S)-1-((2R)-2-(diethylamino)-2-phenylacetyl)-2-pyrrolidinyl)-1H-imidazol-5-yl)-4-biphenylyl)-1H-imidazol-2-yl)-1-pyrrolidinyl)-3-oxopropyl)carbamate] as the compound, how does the EC50 read?
A: 1 to 999 pM

Q: `COC(=O)N[C@@H](C)C(=O)N1CC(F)(F)C[C@H]1c1ncc(-c2ccc(-c3ccc(-c4cnc([C@@H]5CC(F)(F)CN5C(=O)[C@H](C)NC(=O)OC)[nH]4)cc3)cc2)[nH]1` [OL-11, methyl ((1S)-2-((2S)-2-(4-(4′-(2-((2S)-4,4-difluoro-1-(N-(methoxycarbonyl)-L-alanyl)-2-pyrrolidinyl)-1H-imidazol-4-yl)-4-biphenylyl)-1H-imidazol-2-yl)-4,4-difluoro-1-pyrrolidinyl)-1-methyl-2-oxoethyl)carbamate] was tested. Which EC50 did it give?
A: 1 to 999 pM

Q: Which EC50 does the source give for `CC(C)[C@H](NC(=O)N(C)C)C(=O)N1CCC[C@H]1c1ncc(-c2ccc(-c3ccc(-c4cnc([C@@H]5CCCN5C(=O)[C@@H](NC(=O)N(C)C)C(C)C)[nH]4)cc3)cc2)[nH]1` [OL-1, 3-((1S)-1-(((2S)-2-(4-(4′-(2-((2S)-1-((2S)-2-((dimethylcarbamoyl)amino)-3-methylbutanoyl)-2-pyrrolidinyl)-1H-imidazol-4-yl)-4-biphenylyl)-1H-imidazol-2-yl)-1-pyrrolidinyl)carbonyl)-2-methylpropyl)-1,1-dimethylurea] here?
A: 1 to 999 pM

Q: How did the EC50 turn out when `CC(C)(C)OC(=O)N1CC(C(=O)N2CCC[C@H]2c2ncc(-c3ccc(-c4ccc(-c5cnc([C@@H]6CCCN6C(=O)[C@@H](c6ccccc6)N6CCCCC6)[nH]5)cc4)cc3)[nH]2)C1` [Example 107-12, tert-butyl 3-(((2S)-2-(5-(4′-(2-((2S)-1-((2R)-2-phenyl-2-(1-piperidinyl)acetyl)-2-pyrrolidinyl)-1H-imidazol-5-yl)-4-biphenylyl)-1H-imidazol-2-yl)-1-pyrrolidinyl)carbonyl)-1-azetidinecarboxylate] was run?
A: 1 to 999 pM

Q: `O=C([C@H](O)Cc1ccccc1)N1CCC[C@H]1c1ncc(-c2ccc(-c3ccc(-c4cnc([C@@H]5CCCN5C(=O)[C@H](O)Cc5ccccc5)[nH]4)cc3)cc2)[nH]1` [Example 9, (2R,2′R)-1,1′-(4,4′-biphenyldiylbis(1H-imidazole-5,2-diyl(2S)-2,1-pyrrolidindiyl))bis(1-oxo-3-phenyl-2-propanol)] was tested. Which EC50 did it give?
A: 1000 to 99000 pM

Q: For `COC(=O)N[C@@H](C(=O)N1CCC[C@H]1c1ncc(-c2ccc(-c3ccc(-c4cnc([C@@H]5CCCN5C(=O)C(c5ccccc5)N5CCC(O)CC5)[nH]4)cc3)cc2)[nH]1)c1ccccc1` (stereo partly drawn) [Example 64, methyl ((1R)-2-((2S)-2-(5-(4′-(2-((2S)-1-((4-hydroxy-1-piperidinyl)(phenyl)acetyl)-2-pyrrolidinyl)-1H-imidazol-5-yl)-4-biphenylyl)-1H-imidazol-2-yl)-1-pyrrolidinyl)-2-oxo-1-phenylethyl)carbamate], which EC50 is on record?
A: 1 to 999 pM

Q: `COC(=O)N[C@H](C(=O)N1CCC[C@H]1c1nc(-c2ccc(-c3ccc(-c4cnc([C@@H]5CCCN5C(=O)[C@H](NC(=O)OC)C5CCOCC5)[nH]4)cc3)cc2)c[nH]1)C(C)C` [Example F57, methyl ((1S)-1-(((2S)-2-(4-(4′-(2-((2S)-1-((2R)-2-((methoxycarbonyl)amino)-2-(tetrahydro-2H-pyran-4-yl)acetyl)-2-pyrrolidinyl)-1H-imidazol-5-yl)-4-biphenylyl)-1H-imidazol-2-yl)-1-pyrrolidinyl)carbonyl)-2-methylpropyl)carbamate] was tested. Which EC50 did it give?
A: 1 to 999 pM

Q: Which EC50 does the source give for `CCN(CC)CCC(NC(=O)OC)C(=O)N1CCC[C@H]1c1ncc(-c2ccc(-c3ccc(-c4cnc([C@@H]5CCCN5C(=O)[C@@H](NC(=O)OC)C(C)C)[nH]4)cc3)cc2)[nH]1` (stereo partly drawn) [Example M67a, methyl ((1S)-1-(((2S)-2-(5-(4′-(2-((2S)-1-(4-(diethylamino)-2-((methoxycarbonyl)amino)butanoyl)-2-pyrrolidinyl)-1H-imidazol-5-yl)-4-biphenylyl)-1H-imidazol-2-yl)-1-pyrrolidinyl)carbonyl)-2-methylpropyl)carbamate] here?
A: 100000 to 999000 pM

Q: Which EC50 does the source give for `CN(C)[C@@H](C(=O)N1CCC[C@H]1c1ncc(-c2ccc(-c3ccc(-c4cnc([C@@H]5CCCN5C(=O)Cc5ccccc5F)[nH]4)cc3)cc2)[nH]1)c1ccccc1` [Example 94-51, (1R)-2-((2S)-2-(5-(4′-(2-((2S)-1-((2-fluorophenyl)acetyl)-2-pyrrolidinyl)-1H-imidazol-5-yl)-4-biphenylyl)-1H-imidazol-2-yl)-1-pyrrolidinyl)-N,N-dimethyl-2-oxo-1-phenylethanamine] here?
A: 1 to 999 pM

Q: With `COC(=O)N[C@@H](C(=O)N1CCC[C@H]1c1ncc(-c2ccc(-c3ccc(-c4cnc([C@@H]5CCCN5C(=O)Cc5cccc(C)c5)[nH]4)cc3)cc2)[nH]1)c1ccccc1` [Example 84-71, methyl ((1R)-2-((2S)-2-(5-(4′-(2-((2S)-1-((3-methylphenyl)acetyl)-2-pyrrolidinyl)-1H-imidazol-5-yl)-4-biphenylyl)-1H-imidazol-2-yl)-1-pyrrolidinyl)-2-oxo-1-phenylethyl)carbamate] as the compound, how does the EC50 read?
A: 1000 to 99000 pM

Q: With `COC(=O)N[C@@H](C)C(=O)N1CCC[C@H]1c1nc(-c2cnc(-c3ccc(-c4cnc([C@@H]5CCCN5C(=O)[C@H](C)NC(=O)OC)[nH]4)c(F)c3)nc2)c[nH]1` [Example D67, methyl ((1S)-2-((2S)-2-(5-(2-fluoro-4-(5-(2-((2S)-1-(N-(methoxycarbonyl)-L-alanyl)-2-pyrrolidinyl)-1H-imidazol-5-yl)-2-pyrimidinyl)phenyl)-1H-imidazol-2-yl)-1-pyrrolidinyl)-1-methyl-2-oxoethyl)carbamate] as the compound, how does the EC50 read?
A: 1 to 999 pM

Q: Which EC50 does the source give for `O=C([C@@H](c1ccccc1)N1CCCCC1)N1CCC[C@H]1c1ncc(-c2ccc(-c3ccc(-c4cnc([C@@H]5CCCN5C(=O)[C@@H](c5ccccc5)N5CCCCC5)[nH]4)cc3)cc2)[nH]1` [Example 24-1, 1,1′-(4,4′-biphenyldiylbis(1H-imidazole-5,2-diyl(2S)-2,1-pyrrolidinediyl((1R)-2-oxo-1-phenyl-2,1-ethanediyl)))dipiperidine] here?
A: 1 to 999 pM

Q: For `O=C(C1CC1)N1CCC[C@H]1c1ncc(-c2ccc(-c3ccc(-c4cnc([C@@H]5CCCN5C(=O)C5CC5)[nH]4)cc3)cc2)[nH]1` [Example 11, 5,5′-(4,4′-biphenyldiyl)bis(2-((2S)-1-(cyclopropylcarbonyl)-2-pyrrolidinyl)-1H-imidazole)], which EC50 is on record?
A: 1000 to 99000 pM

Q: How did the EC50 turn out when `COC(=O)N[C@H](C(=O)N1C[C@@H](O)C[C@H]1c1ncc(-c2ccc(-c3ccc(-c4cnc([C@@H]5C[C@H](O)CN5C(=O)[C@@H](NC(=O)OC)C(C)C)[nH]4)cc3)cc2)[nH]1)C(C)C` [JG-9, methyl ((1S)-1-(((2S,4S)-4-hydroxy-2-(5-(4′-(2-((2S,4S)-4-hydroxy-1-((2S)-2-((methoxycarbonyl)amino)-3-methylbutanoyl)-2-pyrrolidinyl)-1H-imidazol-5-yl)-4-biphenylyl)-1H-imidazol-2-yl)-1-pyrrolidinyl)carbonyl)-2-methylpropyl)carbamate] was run?
A: 1 to 999 pM

Q: For `CN(C)[C@@H](C(=O)N1CCC[C@H]1c1ncc(-c2ccc(-c3ccc(-c4cnc([C@@H]5CCCN5C(=O)[C@@H](c5ccccc5)N(C)C)[nH]4)nn3)nn2)[nH]1)c1ccccc1` [Example 153c-1, (1R,1′R)-2,2′-(3,3′-bipyridazine-6,6′-diylbis(1H-imidazole-5,2-diyl(2S)-2,1-pyrrolidinediyl))bis(N,N-dimethyl-2-oxo-1-phenylethanamine)], which EC50 is on record?
A: 1000 to 99000 pM

Q: Which EC50 does the source give for `COC(=O)N[C@H](C(=O)N1CCC[C@H]1c1ncc(-c2ccc(-c3ccc(-c4cnc([C@@H]5CCCN5C(=O)[C@H]5CCCC[C@H]5NC(=O)OC)[nH]4)cc3)cc2)[nH]1)C(C)C` [cj-93, methyl ((1S)-1-(((2S)-2-(5-(4′-(2-((2S)-1-(((1S,2R)-2-((methoxycarbonyl)amino)cyclohexyl)carbonyl)-2-pyrrolidinyl)-1H-imidazol-5-yl)-4-biphenylyl)-1H-imidazol-2-yl)-1-pyrrolidinyl)carbonyl)-2-methylpropyl)carbamate] here?
A: 1 to 999 pM
